Calls of active or inactive are those of the source. No stated cut-off is given here; in the data, actives have a measured IC50 and inactives only a lower limit.

For the assay, the target named is Envelope glycoprotein gp160 (Human immunodeficiency virus 1, UniProt Q6QLK5). The experiment in a line: inhibitors of HIV fusion peptide binding, primary screen, biochemical, uHTS, fluorescence dequenching (AID 1986).
Sequence of Envelope glycoprotein gp160 (Q6QLK5 whole entry, the tested form may be a part): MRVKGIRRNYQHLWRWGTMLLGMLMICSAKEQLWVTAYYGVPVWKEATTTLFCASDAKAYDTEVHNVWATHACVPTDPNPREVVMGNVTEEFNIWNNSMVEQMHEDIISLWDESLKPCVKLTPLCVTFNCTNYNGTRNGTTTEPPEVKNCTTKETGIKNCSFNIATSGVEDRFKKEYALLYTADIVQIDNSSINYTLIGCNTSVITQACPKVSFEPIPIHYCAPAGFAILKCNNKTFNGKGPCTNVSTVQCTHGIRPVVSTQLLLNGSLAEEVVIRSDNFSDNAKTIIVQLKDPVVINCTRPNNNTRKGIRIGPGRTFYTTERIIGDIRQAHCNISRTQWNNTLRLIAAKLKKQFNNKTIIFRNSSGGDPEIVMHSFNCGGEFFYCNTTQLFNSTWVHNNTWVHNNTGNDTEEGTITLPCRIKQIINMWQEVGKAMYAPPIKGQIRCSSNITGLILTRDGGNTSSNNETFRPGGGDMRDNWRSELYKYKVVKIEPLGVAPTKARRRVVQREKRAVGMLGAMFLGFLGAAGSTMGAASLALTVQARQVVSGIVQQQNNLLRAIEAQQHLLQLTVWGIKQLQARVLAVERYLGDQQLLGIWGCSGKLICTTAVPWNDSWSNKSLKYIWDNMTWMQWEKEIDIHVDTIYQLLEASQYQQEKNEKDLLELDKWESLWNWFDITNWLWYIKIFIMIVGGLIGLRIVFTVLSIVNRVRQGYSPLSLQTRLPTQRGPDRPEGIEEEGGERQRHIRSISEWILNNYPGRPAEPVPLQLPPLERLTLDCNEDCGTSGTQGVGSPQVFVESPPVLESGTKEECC
Regarding `COc1ccc(OC)c(/C=C2\SC(=S)N(NS(=O)(=O)c3ccc(C)cc3)C2=O)c1`, the 50% inhibitory concentration (IC50) (in general, the point on the concentration scale where inhibition reaches its midpoint) is 21.4 µM (active). The result for `CC1=C(C#N)C(=O)NC(=O)/C1=C\c1ccc(-c2cc(C)c(C)cc2[N+](=O)[O-])o1` reads 21.8 µM (active). The result for `COc1ccc(-c2csc(NC(=O)CSc3nc(C)nc4sc(C(=O)O)c(C)c34)n2)cc1` reads 9.37 µM (active).

Source of the values: ChEMBL document CHEMBL1201862, “PubChem BioAssay data set” (2004).
